Among the data in a melting point compilation (Tetko et al.; mined from patent text by program, amines drawn as free bases though some values may be those of a salt) are melting point values, retold here.

The term melting point denotes the temperature of the solid-liquid transition. The compound `O=S(=O)(Nc1ccc(Cl)nn1)c1ccccc1-c1ccccc1` gave a melting point of 196 to 198 °C. The figure for `O=C1N(C(c2ccccc2)c2ccccc2)c2ccccc2C1(O)c1cc2c(cc1O)OCCC2` (centres undefined) is 204 to 206 °C; for `CCNc1nc(C)cc(O)n1` it is 176 °C; for `CN1CCN(C(=NO)C2=Nc3ccc(Cl)cc3C(c3ccccc3F)=NC2)CC1` it is 198 to 200 °C. The figure for `c1ccc2cc(Cn3ccnc3)ccc2c1` is 87 to 88 °C; for `CN(C)C(=O)c1ccc(NC(=O)C(C)(C)C)cc1C(F)(F)F` it is 199 to 200 °C. The figure for `COc1ccc(COC(=O)c2ccc(C(O)C(=O)O)cc2)cc1` (centres undefined) is 111 to 113 °C; for `COC(=O)C(CCSC)NC(=O)c1ccc([N+](=O)[O-])cc1-c1ccccc1` (centres undefined) it is 98 to 101 °C. The compound `Cc1sc(-c2cn[nH]c2)nc1O` registered a melting point of 124 to 125 °C. Compound `CC(=O)OCC1=C(C(=O)OC(C)(C)C)N2C(=O)C(N)C2SC1` (centres undefined) had a melting point of 111 to 112 °C. The result for `O=C1N(CC2CCCO2)c2cc3c(cc2C12COc1cc4c(cc12)CCO4)OCCO3` (centres undefined) reads 220 to 225 °C.

The compound `O=C(Nc1cccc([N+](=O)[O-])c1)C(=O)N1CCC(Cc2ccc(F)cc2)CC1` yielded a melting point of 135 to 138 °C. The result for `OC(CCc1cccnc1)COc1ccc(C=Cc2ccccc2)cc1` (centres undefined) reads 110 to 111 °C; that for `CN(C)C(=O)c1cc(N)cc(C(F)(F)F)c1`, 154 °C; that for `Cc1nc(-c2ccccc2)n[nH]c1=O`, 75 to 76 °C. The result for `O=C1CCC(c2ccc(C3=NNC(=O)CC3)cc2)=NN1` reads above 250 °C. The figure for `CCCCCCCCn1c(C)c(C(=O)c2ccccc2C(=O)O)c2ccccc21` is 121 to 123 °C; for `O=C(NCC/C=C\CCCNC(=O)c1ccc(OC(F)(F)F)cc1)c1ccc(OC(F)(F)F)cc1` it is 111 to 113 °C; for `Cc1cc(CCC(=O)OC(C)(C)C)cc(-c2nc(=O)c3ccccc3s2)n1` it is 129 to 130 °C. Compound `COc1cc(Nc2c(C#N)cnc3cc4ccccc4cc23)c(C)cc1Cl` showed a melting point of 195 to 197 °C. The result for `CCCOc1ccc(/C=C(\C)C(=O)O)cc1` reads 171 °C; that for `CC1=CC(c2ccc(Cl)cc2)C2=C(CCCC2=O)N1` (centres undefined), 184 to 187 °C. The figure for `O=C1N=CC(OCC2CC2)(C(F)(F)F)c2cc(Cl)ccc2N1` (centres undefined) is 185 to 186 °C; for `CC(C)(O)C1(c2onc(-c3ccc(O)cc3)c2-c2ccccc2)CC1` it is 212 to 213 °C. The figure for `Cc1cc(C)nc(NC(=O)NS(=O)(=O)c2ccccc2C(=O)O)n1` is 160 °C; for `FC(F)(F)c1ccc(NC(=S)Nc2cc(C(F)(F)F)nc(C(F)(F)F)c2)cc1` it is 125 to 132 °C. For the compound `CC#CC(C)(C)NC(=O)C(CC)Oc1ccc2ncc(Br)cc2c1` (centres undefined), the melting point lay within 109 to 112 °C. The figure for `CN(C)C=Nc1c(Cl)cc(N=Cc2ccc(C#N)cc2)cc1Cl` is 169 to 170 °C. The figure for `COc1cc(OC)c2c(=O)cc(Oc3ccccc3)oc2c1C1CCN(C)CC1O` (centres undefined) is 238 to 239 °C; for `FC(F)c1nc2ccccc2n1-c1nc(Oc2ccccc2)nc(N2CCOCC2)n1` it is 228 to 231 °C. The figure for `O=C(O)/C=C/c1cc(F)c2ncc(C(=O)NCc3ccc(Cl)cc3)c(O)c2c1` is 296 to 298 °C. `CCOc1c(C(=O)OCC(C)(C)C(O)C(C)(C)C)oc2ccc(OC)cc12` (centres undefined) came in with a melting point of 100 to 101 °C. The result for `CC(C)CN(CC(C)C)C(=O)c1c(N)cccc1N` reads 76 to 77 °C. The figure for `CC(=O)OC1CSC(O)C(OC(C)=O)C1OC(C)=O` (centres undefined) is 115 °C. In turn, `COc1ccc(C2(Cl)CC(CNC(C)(C)C)=Nc3sc4c(c32)CCNC4)cc1OC` (centres undefined) yielded a melting point of 162 to 163 °C. The figure for `CC(C)COC(=O)Oc1ccc(S(=O)(=O)c2ccc(S(N)(=O)=O)s2)cc1` is 111 to 112 °C; for `CCOC(=O)c1ccc(OCCCCCCCCCCCOc2ccc(Cl)cc2)cc1` it is 94 to 95 °C.

`CCn1nc(-c2ccccc2)c(C(C)=O)c(Nc2cc(Br)cc3cccnc23)c1=O` returned a melting point of 147 to 148 °C. On to `CCCn1c(COC)nc2c(N)nc3ccc(OCCCOC(=O)N4CCOCC4)cc3c21`, for which the melting point lay within 173 to 174 °C. The compound `C=CCC(C(=O)NC)c1ccc(F)cc1` (centres undefined) yielded a melting point of 104 to 105 °C.

`Cn1c2ccccc2c2ccc3ccccc3c21`: the melting point is 167 to 169 °C.

As for `CCCCC1Oc2ccc(NC(C)=O)cc2C1O` (centres undefined), the melting point lay within 134 to 137 °C. The figure for `Oc1ccc2sc(-c3ccc(OCCN4CCCC4)cc3)c(Cc3ccc(OC4CCCCC4N4CCCCC4)cc3)c2c1` (centres undefined) is 103 to 106 °C; for `COc1ccc2oc(Cc3ccccc3)c(CC#N)c2c1` it is 69 to 70 °C; for `CCCCCCCCCCCCCCN(C(=O)CCCCCCCCCCC)C1(N)OC(CO)C(O)C(O)C1C(=O)C(N)C(=O)C(N)CO` (centres undefined) it is 141 to 143 °C.

As for `CCOC(=O)c1cccc(NC(=O)N2CCc3cc(SC)c(C(F)(F)F)cc32)c1`, the melting point fell in the range of 195 to 197 °C. Turning to `Cc1cc(O)c(O)cc1CC=Cc1ccccc1`, the melting point amounted to 85 °C. The figure for `COc1cc(C(=O)Oc2cc(Cl)c(Cl)cc2Cl)ccc1Cc1cn(C)c2ccc([N+](=O)[O-])cc12` is 134 to 136 °C; for `Nc1ccc(Cc2ccc(CS(=O)(=O)NCc3ccccc3)cc2)cc1` it is 115 to 118 °C.

In the case of `COc1cc(C2CCN(C(=O)CN)CC2)ccc1Nc1ncc2ccc(-c3ccccc3OC)n2n1`, the melting point lay within 86 to 99 °C. The figure for `CCc1nnc2ccc(-c3ccc(Cl)cc3)nn12` is 197 to 199 °C; for `CC(C)Oc1cc(CCC(=O)NS(C)(=O)=O)n(Cc2ccc(Cl)cc2Cl)n1` it is 104 to 105 °C; for `O=C(C[C@@H](O)C(F)(F)F)N[C@H]1CC[C@H](CCN2CCN(c3nccc4c3CCO4)CC2)CC1` it is 207 °C.

Compound `COC(=O)c1c(C(F)F)nc(C(F)(F)F)c(C(=O)Cl)c1CC(C)C` registered a melting point of 71 to 75 °C. `O=Cc1ccc2ccc3c4ccccc4ccc3c2c1` had a melting point of 177 to 178 °C. The result for `Cn1c(COc2ccc(CC3SC(=O)NC3=O)cc2)nc2ccc(O)nc21` (centres undefined) reads 240 to 242 °C; that for `O=C(O)COc1ccc(-c2ccc(=O)[nH]n2)cc1Cl`, 227 °C; that for `CC1(C(F)(F)F)NC(c2ncccc2C(=O)O)=NC1=O` (centres undefined), 180 to 184 °C. The result for `Cc1cc(F)ccc1Nc1nc(N(C)c2ccccc2)c2cc(OCCCN(C)C)ccc2n1` reads 103 to 104 °C; that for `O=c1[nH]c2scc(C3CC3)c2[nH]c1=O`, above 250 °C; that for `COc1cccc(C2=C(C#N)C(c3cccc4nsnc34)c3c[nH]nc3N2)c1` (centres undefined), 220 °C. The result for `C1=Nc2cc3c(cc2=C1)N=c1ccccc1=3` reads 210 to 211 °C. `COC(=O)C(Oc1cc(OCc2ccsc2)ccc1C#N)c1ccccc1C(F)(F)F` (racemic): the melting point lay in the range of 104 to 108 °C. The result for `O=C(Nc1ccccc1)Nc1nc(C=C2SC(=O)NC2=O)cs1` reads above 300 °C. Take `CC(C)c1sc(-c2ccccc2)c(-c2ccc(F)cc2)c1CO`: the melting point lay within 140 to 143 °C. The result for `COC(=O)C(O)C(NC(=O)OC(C)(C)C)C1CC1` (centres undefined) reads 93 °C; that for `COc1ccc(-c2cc(CN3CCN(CCO)CC3)c(=O)n(CC=Cc3ccc(Cl)cc3)n2)cc1F`, 133 to 135 °C; that for `COC(=O)c1cc(Cl)ccc1NS(=O)(=O)c1ccc(C)cc1`, 112 to 114 °C. The result for `Cc1ccccc1OCC1COC(Cn2ccnc2)(c2ccc(Cl)cc2Cl)O1` (centres undefined) reads 138 °C; that for `O=C(O)Cc1c(C(=O)O)c2cc(Oc3ccc(Cl)c(F)c3)ccc2n1-c1ccccc1`, 174 to 176 °C. The figure for `Cc1cc(O)cc(-c2nn(CC#N)cc2-c2cc(NC[C@H](C)O)nc(-c3cccnc3)n2)c1` is 236 °C; for `CCOc1cc(N)c(Cl)cc1C(=O)NCC1CN(CC2CCN(Cc3cccc(F)c3)CC2)CCO1` (centres undefined) it is 172 to 174 °C; for `CCCc1nc2c(N)nc3cc(-c4cccc(C(=O)N(CC)CC)c4)ccc3c2s1` it is 169 to 172 °C. The compound `COc1ccc(CC2CCC3=C(C2)CC(CO)C(=O)N3)cc1` (centres undefined) came in with a melting point of 165 to 168 °C.

`Cc1cc(OC(F)F)nc(NC(=O)NS(=O)(=O)c2ccccn2)n1` came in with a melting point of 150 to 151 °C. The compound `CC1(C)C=Cc2c(c3ccccc3[nH]c2=O)O1` yielded a melting point of 174 to 177 °C. The figure for `CCOC(=O)c1c(C)nc(N2CCCCC2)c2nccnc12` is 73 to 74 °C; for `Cc1nc(CCl)c(Br)s1` it is 154 to 156 °C; for `Nc1c([N+](=O)[O-])sc2ccc(C(F)(F)F)cc12` it is 198 to 201 °C.

Compound `NC(=O)c1cc(-c2ccc3nnn(Cc4ccc5ncccc5c4)c3n2)ccc1F` had a melting point of 262 to 264 °C. The figure for `COc1cc2c(cc1OC)C(c1c[nH]cn1)CCC2` (centres undefined) is 140 °C; for `Fc1cccc(F)c1-c1ncc(-c2ccc(Br)cc2)nn1` it is 180 to 181 °C; for `Cn1c2c(ccc1=O)C(NCCc1ccc(C(F)(F)F)cc1)CCC2` (centres undefined) it is 104 to 106 °C. The result for `Cc1nnc(-c2ccc3occ(-c4ccc(S(=O)Cc5ccccc5C#N)cc4)c3c2)o1` (centres undefined) reads 171 to 172 °C.

The compound `COCCNC(=O)c1ccnc(-c2cccc3cc(Cc4cccc(C(F)(F)F)c4)sc23)c1F` returned a melting point of 94 to 95 °C. The figure for `COC(=O)C(c1ccc(Cl)cc1)C(OC)OC` (centres undefined) is 61 to 62 °C; for `COc1cc(CCCCC2OC(=O)NC2=O)ccc1OCc1coc(/C=C/c2ccccc2)n1` (centres undefined) it is 171 to 172 °C. `CCN(CC)C(Cc1cccs1)=Nc1ccc2sc3ccccc3c2c1` showed a melting point of 114 to 115 °C. The result for `COc1cccc(NS(=O)(=O)c2ccc(NC3=C(Cl)C(=O)c4ccccc4C3=O)cc2)c1` reads 213 to 216 °C.
